In patent US20250197865A1, “PHARMACEUTICAL COMPOSITION FOR TREATMENT OR PREVENTION OF FIBROTIC DISEASE” (KYUSHU UNIVERSITY, NATIONAL UNIVERSITY CORPORATION, priority 2022, published 2025):

Assays:
TGFβ/SMAD pathway = test: SIS3 treatment of myofibroblasts from carbon tetrachloride-induced fibrotic liver, mRNA by real-time RT-PCR; type: cell-based, mouse; settings: myofibroblasts from CCl4 liver fibrosis model; SIS3 3 μM; P4HA3, Col1α1, Col1α2, Col3α1; FIG. 26b
Text: (§1) Hepatic stellate cells, which are involved in liver fibrosis, are known to be activated by TGFβ (Fabregat, I. et al., FEBS J., 283:2219-2232 (2016)). Therefore, the effects of TGFβ and its specific inhibitor SIS3, as well as an inhibitor of SMAD3 involved in signal transduction of the TGFβ pathway (si SMAD3), on the mRNA expression of fibrosis-related factors in […] were examined. SIS3 (CAS number: 1009104-85-1) was used under catalog number 15945 from Cayman Chemical Company. SIS3 was added to the culture medium at a final concentration of 3 μM and administered. Si SMAD3 was used as a knockdown reagent for SMAD3. si SMAD3 was used under catalog number 4390771 (Assay ID: s69495) from ThermoFisher Scientific. si SMAD3 was administered to cultured cells in the same manner as in Examples 3, 7, and 13. LX-2, a cultured hepatic stellate cell line, was cultured in DMEM supplemented with 2% FBS.
Bar graph showing the mRNA expression levels of P4HA3, 1α1 collagen (Col1α1), 1α2 collagen (Col1α2), and 3α1 collagen (Col3α1) in myofibroblasts isolated from liver tissue of a mouse model of liver damage and liver fibrosis caused by carbon tetrachloride administration and treated with SIS3, an inhibitor of the TGFβ/SMAD pathway. […] The number of samples for each group was 5.

[1] = system: P4HA3 and 1α1 collagen (Col1α1) mRNA expression in LX-2 cells; test: TGFβ treatment of cultured LX-2 hepatic stellate cell line, mRNA by real-time RT-PCR; type: cell-based; settings: TGFβ 5 ng/mL for 12 hr, FIG. 26a
Text: as §1
First, the effect of TGFβ on the mRNA expression of P4HA3 or 1α1 collagen (Col1α1) in the cultured LX-2 cells was examined. FIG. 26a is a bar graph showing the mRNA expression level of P4HA3 or 1α1 collagen (Col1α1) in LX-2 cells treated with DMSO or TGFβ (5 ng/ML) for 12 hr. […] The number of samples for each group was 3. […] Error bars indicate standard deviation.

| Molecule | mRNA expression of fibrosis-related factors including P4HA3 (TGFβ/SMAD pathway) | mRNA expression of 1α1 collagen (Col1α1) [1] | mRNA expression of P4HA3 [1] |
| --- | --- | --- | --- |
| COc1cc2c(cc1OC)CN(C(=O)/C=C/c1c(-c3ccccc3)n(C)c3ncccc13)CC2 [SIS3] | suppressed | – | – |
| TGFβ | – | enhanced | enhanced |
